Test results taken from patent publication US7371742B2, “Porphyrin derivatives for photodynamic therapy” (Institut Curie, priority 2001, dated 2008).
Read-outs that look alike come from different tables or passages of the source.

Columns and labels:
[1] = test system: RBY-79 (indifferently named Y-79) cells; experiment: RBY-79 (Y79) cell cytotoxicity / photocytotoxicity; conditions: for Photocytotoxicity RBY-79, concentration giving 50%: with light; for cytotoxic for Y79 (in words): without light, remark of the inventors
Description: Columns HT29 and Y79 (═RBY79), without light, correspond to the cytotoxic activity.

[2] = test system: human colic adenocarcinoma cell line HT29; experiment: HT29 cell survival (MTT assay) after 24 h incubation, with or without light irradiation; conditions: for Photocytotoxicity HT 29, concentration giving 50%: 50% effect, with light; for cytotoxic for HT29 (in words): without light, remark of the inventors
Description: HT29 cells were cultivated in Dulbecco's MEM supplemented with 10% fetal calf serum (FCS). Cells from log-phase culture were seeded in 24-microwell plates (1 mL-5×10^4 cells/well) and kept at 37° C. in a water-jacketed incubator for 2 days under an air/CO2 atmosphere (5% CO2). Tested compounds, in DMSO solution, were added under the minimum volume (5 μL) to reach a concentration ranging from 0.1 to 10 μg/mL. Controls cells received 5 μL of DMSO free of dye. Plates were incubated 24 h, then medium was removed and the cells were washed twice with phosphate buffered saline (PBS) before addition of fresh medium free of drug and irradiation with visible light using a home made “light box” giving a fluence of 3.8 mW/cm^2 on the whole visible spectrum. Irradiation with red light was carried out using the same device fitted with an orange filter (0% T at 520 nm and 80% T at 590 nm) leading to a fluence of 2 mW/cm^2.
Plates were reincubated for 3 days before evaluation of the cell survival using the MTT assay (T. Mosmann, “Rapid calorimetric assay for cellular growth and survival. Application to proliferation assays”. J. Immunol. Methods 65,55-63,1983) using 30 min incubation with 100 μg well of 3-[4,5-dimethylthiazol-2-yl]-2,5-diphenyl tetrazolium bromide (MTT, Sigma). After removal of the medium, formazan crystals were taken up with 100 μL of DMSO and absorbance at 540 ni was measured with a Bio-Rad microplate reader (model 450); survival was expressed as % of untreated controls.

L-1210 cells = experiment: Cytotoxicity L-1210 (no light), cytostatic activity; type: cell-based, human; conditions: no light; for Cytotoxicity L-1210 (no light), concentration giving 50%: 50% effect
Description: Column L1210 corresponds to the cytostatic activity.

[3] = read-out: Y79 IC50 (μM) With 2J/cm^2, irradiation with filter (0% T at 520 nm, 80% T at 590 nm), 3.5 mW/cm^2, 10 min
[4] = read-out: Y79 IC50 (μM) without light, without light (cytotoxic activity)
[5] = read-out: HT 29 IC50 (μM) with 2J/cm^2, irradiation with filter (0% T at 520 nm, 80% T at 590 nm), 3.5 mW/cm^2, 10 min
[6] = read-out: HT 29 IC50 (μM) without light, without light (cytotoxic activity)

| Compound | IC50 [1, 3] | IC50 [1, 4] | IC50 [2, 5] | IC50 [2, 6] | other results |
| --- | --- | --- | --- | --- | --- |
| OC[C@H]1O[C@@H](Sc2c(F)c(F)c(-c3c4nc(c(-c5c(F)c(F)c(S[C@@H]6O[C@H](CO)[C@@H](O)[C@H](O)[C@H]6O)c(F)c5F)c5ccc([nH]5)c(-c5c(F)c(F)c(S[C@@H]6O[C@H](CO)[C@@H](O)[C@H](O)[C@H]6O)c(F)c5F)c5nc(c(-c6c(F)c(F)c(S[C@@H]7O[C@H](CO)[C@@H](O)[C@H](O)[C@H]7O)c(F)c6F)c6ccc3[nH]6)C=C5)C=C4)c(F)c2F)[C@H](O)[C@@H](O)[C@@H]1O [Compound 25, TPP F4(p-S-β-GluOH)4] | 4 µM | > 10 µM | > 10 µM | > 10 µM | Photocytotoxicity RBY-79, concentration giving 50% ([1]; 50% effect): inactive; Photocytotoxicity HT 29, concentration giving 50% [2]: inactive; Cytotoxicity L-1210 (no light), % at 10 μg/ml (L-1210 cells): 18% 10 μg/ml |
| O[C@@H]1[C@@H](O)[C@H](Sc2c(F)c(F)c(-c3c4nc(c(-c5c(F)c(F)c(S[C@@H]6OC[C@@H](O)[C@H](O)[C@H]6O)c(F)c5F)c5ccc([nH]5)c(-c5c(F)c(F)c(S[C@@H]6OC[C@@H](O)[C@H](O)[C@H]6O)c(F)c5F)c5nc(c(-c6c(F)c(F)c(S[C@@H]7OC[C@@H](O)[C@H](O)[C@H]7O)c(F)c6F)c6ccc3[nH]6)C=C5)C=C4)c(F)c2F)OC[C@H]1O [Compound 27, TPP F4(p-S-β-XylOH)4] | 1 µM |  | 5 µM | > 10 µM | Photocytotoxicity RBY-79, concentration giving 50% ([1]; 50% effect): 50% 1.6 μg/ml; Y79 IC50 (μM) without light ([1]; without light (cytotoxic activity)): Inactive for μM; Photocytotoxicity HT 29, concentration giving 50% [2]: 7.5 µg/mL; Cytotoxicity L-1210 (no light), concentration giving 50% (L-1210 cells): 14 µg/mL |
| O[C@@H]1[C@@H](O)[C@H](Sc2c(F)c(F)c(-c3c4nc(c(-c5c(F)c(F)c(S[C@@H]6OC[C@@H](O)[C@H](O)[C@H]6O)c(F)c5F)c5ccc([nH]5)c(-c5c(F)c(F)c(S[C@@H]6OC[C@@H](O)[C@H](O)[C@H]6O)c(F)c5F)c5nc(c(-c6c(F)c(F)c(F)c(F)c6F)c6ccc3[nH]6)C=C5)C=C4)c(F)c2F)OC[C@H]1O [Compound 28, TPP F4(p-S-β-XylOH)3] | 1.2 µM | > 10 µM | 2.6 µM | > 10 µM | Photocytotoxicity RBY-79, concentration giving 50% ([1]; 50% effect): 1.7 µg/mL; Photocytotoxicity HT 29, concentration giving 50% [2]: 50% 3.7 μg/ml; Cytotoxicity L-1210 (no light), concentration giving 50% (L-1210 cells): 50% 9 μg/ml |
| OC[C@H]1O[C@H](Sc2c(F)c(F)c(-c3c4nc(c(-c5c(F)c(F)c(S[C@H]6O[C@H](CO)[C@@H](O)[C@H](O)[C@@H]6O)c(F)c5F)c5ccc([nH]5)c(-c5c(F)c(F)c(S[C@H]6O[C@H](CO)[C@@H](O)[C@H](O)[C@@H]6O)c(F)c5F)c5nc(c(-c6c(F)c(F)c(S[C@H]7O[C@H](CO)[C@@H](O)[C@H](O)[C@@H]7O)c(F)c6F)c6ccc3[nH]6)C=C5)C=C4)c(F)c2F)[C@@H](O)[C@@H](O)[C@@H]1O [Compound 29, TPP F4(p-S-α-MannOH)4] | 3.3 µM | > 10 µM | 2.4 µM | > 10 µM |  |
| OC[C@H]1O[C@H](Sc2c(F)c(F)c(/C3=c4\cc/c([nH]4)=C(\c4c(F)c(F)c(F)c(F)c4F)C4=NC(C=C4)[C@@H](c4c(F)c(F)c(F)c(F)c4F)c4ccc([nH]4)/C(c4c(F)c(F)c(S[C@H]5O[C@H](CO)[C@@H](O)[C@H](O)[C@@H]5O)c(F)c4F)=C4/C=CC3=N4)c(F)c2F)[C@@H](O)[C@@H](O)C1O (stereo partly shown) [Compound 31] |  |  |  |  | Photocytotoxicity RBY-79, % at 2 μg/ml [1]: 80% 2 μg/ml |
| OC[C@H]1O[C@H](Sc2c(F)c(F)c(-c3c4nc(c(-c5c(F)c(F)c(S[C@H]6O[C@H](CO)[C@@H](O)[C@H](O)[C@@H]6O)c(F)c5F)c5ccc([nH]5)c(-c5c(F)c(F)c(S[C@H]6O[C@H](CO)[C@@H](O)[C@H](O)[C@@H]6O)c(F)c5F)c5nc(c(-c6c(F)c(F)c(F)c(F)c6F)c6ccc3[nH]6)C=C5)C=C4)c(F)c2F)[C@@H](O)[C@@H](O)[C@@H]1O [Compound 33, TPP F4(p-S-α-MannOH)3] | 2.7 µM | > 10 µM | 1.7 µM | > 10 µM | Photocytotoxicity RBY-79, % at 2 μg/ml [1]: 90% 2 μg/ml |
| O[C@@H]1[C@@H](O)[C@H](SCc2ccc(-c3c4nc(c(-c5ccc(CS[C@@H]6OC[C@@H](O)[C@H](O)[C@H]6O)cc5)c5ccc([nH]5)c(-c5ccc(CS[C@@H]6OC[C@@H](O)[C@H](O)[C@H]6O)cc5)c5nc(c(-c6ccc(CS[C@@H]7OC[C@@H](O)[C@H](O)[C@H]7O)cc6)c6ccc3[nH]6)C=C5)C=C4)cc2)OC[C@H]1O [Compound 64, TPP(p-CH2-S-β-XylOH)4] |  | 3.8 µM | 4.5 µM | > 10 µM | RBY-79, concentration giving 50% with light or not ([1]; 50% effect, with light or not): 50% at 7 μg/ml; Y79 IC50 (μM) With 2J/cm^2 ([1]; irradiation with filter (0% T at 520 nm, 80% T at 590 nm), 3.5 mW/cm^2, 10 min): Inactive; cytotoxic for Y79 (in words) [1]: cytotoxic; Photocytotoxicity HT 29, % at 10 μg/ml [2]: 30% at; Cytotoxicity L-1210 (no light), % at 10 μg/ml (L-1210 cells): 32% |
| OC[C@H]1O[C@H](SCc2ccc(-c3c4nc(c(-c5ccc(CS[C@H]6O[C@H](CO)[C@@H](O)[C@H](O)[C@@H]6O)cc5)c5ccc([nH]5)c(-c5ccc(CS[C@H]6O[C@H](CO)[C@@H](O)[C@H](O)[C@@H]6O)cc5)c5nc(c(-c6ccc(CS[C@H]7O[C@H](CO)[C@@H](O)[C@H](O)[C@@H]7O)cc6)c6ccc3[nH]6)C=C5)C=C4)cc2)[C@@H](O)[C@@H](O)[C@@H]1O [Compound 66, TPP(p-CH2-S-α-MannOH)4] | 15 µM | 28 µM | 10 µM | 21 µM | Photocytotoxicity RBY-79, % at 10 μg/ml ([1]; 10 μg/ml): 20%; Photocytotoxicity HT 29, % at 10 μg/ml [2]: 40%; Cytotoxicity L-1210 (no light), % at 10 μg/ml (L-1210 cells): 0% 10 μg/ml |
| OC[C@H]1O[C@H](OCCOCCOc2ccc(-c3c4nc(c(-c5ccc(OCCOCCO[C@H]6O[C@H](CO)[C@@H](O)[C@H](O)[C@@H]6O)cc5)c5ccc([nH]5)c(-c5ccc(OCCOCCO[C@H]6O[C@H](CO)[C@@H](O)[C@H](O)[C@@H]6O)cc5)c5nc(c(-c6ccccc6)c6ccc3[nH]6)C=C5)C=C4)cc2)[C@@H](O)[C@@H](O)[C@@H]1O [Compound 67, TPP(p-O-DEG-O-α-Mann)3] | 0.3 ± 0.08 µM | > 10 µM | 0.7 ± 0.4 µM | > 10 µM | Photocytotoxicity RBY-79, % at 1 μg/ml ([1]; 1 μg/ml): 0% at 1 μg/ml; Photocytotoxicity RBY-79, % at 2 μg/ml [1]: 80% at 2 μg/ml,; Photocytotoxicity RBY-79, concentration giving 50% ([1]; 50% effect): 50% at 1.5 μg/ml,; Photocytotoxicity HT 29, concentration giving 50% [2]: 1.5 µg/mL; Cytotoxicity L-1210 (no light), concentration giving 50% (L-1210 cells): 50% 8 μg/ml |
| OC[C@H]1O[C@H](SCCOCCOCCOc2ccc(-c3c4nc(c(-c5ccc(OCCOCCOCCS[C@H]6O[C@H](CO)[C@@H](O)[C@H](O)[C@@H]6O)cc5)c5ccc([nH]5)c(-c5ccc(OCCOCCOCCS[C@H]6O[C@H](CO)[C@@H](O)[C@H](O)[C@@H]6O)cc5)c5nc(c(-c6ccccc6)c6ccc3[nH]6)C=C5)C=C4)cc2)[C@@H](O)[C@@H](O)[C@@H]1O [Compound 74, 5,10,15-tri(para-10-S-α-D-thiomanosyloxy-O-triethylene glycoloxyphenyl)-20-phenylporphyrin] | 0.5 ± 0.3 µM | 11 ± 5 µM | 4.8 µM | 10.5 µM |  |
| OC[C@H]1O[C@@H](Oc2ccc(-c3c4nc(c(-c5ccc(O[C@@H]6O[C@H](CO)[C@@H](O)[C@H](O)[C@H]6O)cc5)c5ccc([nH]5)c(-c5ccc(O[C@@H]6O[C@H](CO)[C@@H](O)[C@H](O)[C@H]6O)cc5)c5nc(c(-c6ccccc6)c6ccc3[nH]6)C=C5)C=C4)cc2)[C@H](O)[C@@H](O)[C@@H]1O [TPP(p-O-β-GluOH)3, reference compound] | 0.9 µM | > 15 µM | 1.5 ± 0.2 µM | > 15 µM |  |
| OC[C@H]1O[C@@H](Oc2ccc(-c3c4nc(c(-c5ccc(O[C@@H]6O[C@H](CO)[C@@H](O)[C@H](O)[C@H]6O)cc5)c5ccc([nH]5)c(-c5ccc(O[C@@H]6O[C@H](CO)[C@@H](O)[C@H](O)[C@H]6O)cc5)c5nc(c(-c6ccc(O[C@@H]7O[C@H](CO)[C@@H](O)[C@H](O)[C@H]7O)cc6)c6ccc3[nH]6)C=C5)C=C4)cc2)[C@H](O)[C@@H](O)[C@@H]1O [TPP(p-O-β-GluOH)4, reference compound] | 5.2 ± 4 µM | 7 ± 4 µM | > 10 µM | > 10 µM |  |
| Oc1ccc(-c2c3nc(c(-c4ccc(O)cc4)c4ccc([nH]4)c(-c4ccc(O)cc4)c4nc(c(-c5ccccc5)c5ccc2[nH]5)C=C4)C=C3)cc1 [TPP(p-OH)3, reference compound] | 1.8 ± 0.1 µM | > 10 µM | 1.65 ± 0.07 µM | > 15 µM |  |
| Oc1ccc(-c2c3nc(c(-c4ccc(O)cc4)c4ccc([nH]4)c(-c4ccc(O)cc4)c4nc(c(-c5ccc(O)cc5)c5ccc2[nH]5)C=C4)C=C3)cc1 [TPP(p-OH)4, reference compound] | 0.3 µM | 4.7 ± 2.5 µM | 0.8 ± 1 µM | 7.75 ± 3 µM | cytotoxic for Y79 (in words) [1]: cytotoxic; cytotoxic for HT29 (in words) [2]: cytotoxic |
| Oc1cccc(-c2c3nc(c(-c4cccc(O)c4)c4ccc([nH]4)c(-c4cccc(O)c4)c4nc(c(-c5cccc(O)c5)c5ccc2[nH]5)CC4)C=C3)c1 [m-THPC, reference compound] |  |  |  |  | IC50 ([1]; Homo sapiens, Y79, light or radiation study, 10 min, read-out: Y79 IC50 (μM) With 2J/cm^2): 0.6 ± 0.03 µM; IC50 ([1]; Homo sapiens, Y79, read-out: Y79 IC50 (μM) without light): > 10 µM; cytotoxic for Y79 (in words) [1]: cytotoxic; IC50 ([2]; Homo sapiens, HT-29, light or radiation study, 10 min, read-out: HT 29 IC50 (μM) with 2J/cm^2): 0.8 ± 0.3 µM; IC50 ([2]; Homo sapiens, HT-29, read-out: HT 29 IC50 (μM) without light): > 10 µM; cytotoxic for HT29 (in words) [2]: cytotoxic |
| TPPF4(p-O-β-GluOH)4 [Compound 63] | > 10 µM | > 10 µM | > 10 µM | > 10 µM | Photocytotoxicity RBY-79, % at 10 μg/ml white light ([1]; 10 μg/ml, white light): 37% |
